Test results published in patent US20040002069A1, “Hepatic gene expression profiling of streptozotocin-induced diabetes” (The Regents of the University of California, priority 2002, published 2004).

Tests used:
[1] = Blood glucose measurements after streptozotocin injections; assay type: in vivo, Swiss-Webster mice; settings: three weekly intraperitoneal injections, 10 mg/100 g body weight; one week after the third injection
Procedure: (§1) Mice and treatment. Female, 8-month old Swiss-Webster mice were purchased from Jackson Laboratories. Diabetes was induced by three weekly intraperitoneal injections of streptozotocin (STZ; 10 mg/100 g body weight) in 50 mM sodium citrate, pH 4.5. […] Only mice with blood glucose levels higher than 3 mg/ml were used. Mice injected with equivalent volumes of sodium citrate at the same times served as controls. Mice were sacrificed one week after the last injection. Mice were fasted for 24 h before sacrifice.

hepatic gene expression = experiment: Hepatic gene expression profiling of streptozotocin-induced diabetes (Affymetrix Mu11KsubA/Mu11KsubB arrays); assay type: in vivo, Swiss-Webster mice
Procedure: as §1
Measurement of Specific mRNA Levels. Total liver RNA was isolated from frozen tissue fragments using TRI Reagent (Molecular Research Center, Inc., Cincinnati, Ohio) as described previously (Cao et al., Proc. Natl. Acad. Sci. U.S. A. 98:10630-10635 (2001)). Specific mRNA levels were measured using the Affymetrix Mu11KsubA and Mu11KsubB high-density oligonucleotide arrays using standard Affymetrix protocols as described (Cao et al., Proc. Natl. Acad. Sci. U.S. A. 98:10630-10635 (2001)). Briefly, cDNA was prepared from total RNA using Superscript Choice System with a primer containing oligo(dT) and the T7 RNA polymerase promoter sequence. Biotinylated cRNA was synthesized from purified cDNA using the Enzo BioArray High Yield RNA Transcript Labeling Kit (Enzo Biochem), and CRNA purified using RNeasy mini columns (Qiagen, Chatsworth, Calif.). An equal amount of cRNA from each animal was separately hybridized to Mu11KsubA and Mu11ksubB high-density oligonucleotide arrays. The arrays were hybridized for 16 h at 45° C. After hybridization, arrays were washed, stained with streptavidin-phycoerythrin, and scanned using a Hewlett-Packard GeneArray Scanner.
Data Analysis and Statistics. Image analysis and data quantification were performed using the Affymetrix Microarray Suite 5.0. Affymetrix Mu11KsubA and Mu11KsubB arrays contain targets for more than 11,000 mouse genes and expressed sequence tags (ESTs). Each gene or EST is represented on the array by 20 perfectly matched (PM) oligonucleotides and 20 mismatched (MM) control probes that contain a single central-base mismatch. The signal intensities of PM and MM were used to calculate a discrimination score, R, which is equal to (PM−MM)/(PM+MM). A detection algorithm utilized R to generate a detection p-value and assign a Present, Marginal or Absent call using the Wilcoxon signed rank test (Wilcoxon F., Biometrics 1:80-83 (1945); Affymetrix, Inc., New Statistical Algorithms for Monitoring Gene Expression on GeneChip Probe Arrays, Technical Notes 1, Part No. 701097 Rev. 1 (2001)). Only genes that were “Present” in at least 2 out of 3 arrays per experimental group were considered for further analysis. A signal algorithm calculated the relative level of expression of each transcript using the One-Step Tukey's Biweight Estimate (Affymetrix, Inc., New Statistical Algorithms for Monitoring Gene Expression on GeneChip Probe Arrays, Technical Notes 1, Part No. 701097 Rev. 1 (2001)). This procedure generates a robust weighted mean that is relatively insensitive to outliers, even when they are extreme. Genes with a signal intensity lower than the mean array signal intensity in 2 or more of the 3 arrays in either experimental group were eliminated from the analysis. All arrays were scaled to a target intensity of 2500. To identify differentially expressed genes, each of the 3 control samples was compared with each of the 3 STZ-treated samples, resulting in 9 pairwise comparisons. […] Difference values (PM-MM) between the control and STZ-treated arrays were used to generate a one-sided p-value for each set of probes. Default boundaries between significant and not significant p-values were used (Affymetrix, Inc., New Statistical Algorithms for Monitoring Gene Expression on GeneChip Probe Arrays, Technical Notes 1, Part No. 701097 Rev. 1 (2001)). […]

## CN(N=O)C(=O)N[C@H]1C(O)O[C@H](CO)[C@@H](O)[C@@H]1O (mixture of isomers) [STZ, streptozotocin]
[1]
  diabetic state by blood glucose measurements: diabetic
Hepatic gene expression; GenBank AA000467, liver, STZ vs control mice
  FC RIKEN cDNA 1110002E23 gene: 2.0 fold
Hepatic gene expression; GenBank AA008321, liver, STZ vs control mice
  FC Proteasome (prosome, macropain) subunit, alpha type 4 (Psma4) mRNA: 2.0 fold
Hepatic gene expression; GenBank AA016424, liver, STZ vs control mice
  FC X-box binding protein 1 (Xbp1) mRNA: 2.1 fold
Hepatic gene expression; GenBank AA028770, liver, STZ vs control mice
  FC Cysteine-rich protein 2 (Csrp2) mRNA: 2.0 fold
Hepatic gene expression; GenBank AA038437, liver, STZ vs control mice
  FC Similar to eukaryotic translation initiation factor 4 gamma, 1 (0610008L05Rik): 2.6 fold
Hepatic gene expression; GenBank AA048927, liver, STZ vs control mice
  FC Bifunctional aminoacyl-tRNA synthetase mRNA: 3.6 fold
Hepatic gene expression; GenBank AA066610, liver, STZ vs control mice
  FC RIKIEN cDNA 1810034D23 gene: 1.9 fold
Hepatic gene expression; GenBank AA096813, liver, STZ vs control mice
  FC CathepsinL (Ctsl) mRNA: 2.5 fold
Hepatic gene expression; GenBank AA106783, liver, STZ vs control mice
  FC Poly A binding protein, cytoplasmic 1 (Pabpc1) mRNA: 2.0 fold
Hepatic gene expression; GenBank AA110781, liver, STZ vs control mice
  FC Phosphoenolpyruvate carboxykinase 1, cytosolic (Pck1) mRNA: 3.6 fold
Hepatic gene expression; GenBank AA124572, liver, STZ vs control mice
  FC mp72b03.rl Soares thymus cDNA clone IMAGE:574733, similar to cyclophilin: 1.9 fold
Hepatic gene expression; GenBank AA137436, liver, STZ vs control mice
  FC Stearoyl-Coenzyme A desaturase 1 (Sed1) mRNA: −14.0 fold
Hepatic gene expression; GenBank AA137659, liver, STZ vs control mice
  FC Cytochrome P450, 2c40 (Cyp2c40) mRNA: −2.5 fold
Hepatic gene expression; GenBank AA138378, liver, STZ vs control mice
  FC Heat shock protein, 74 kDa, A (Hspa9A) mRNA: 3.5 fold
Hepatic gene expression; GenBank AA165782, liver, STZ vs control mice
  FC Protease (prosome, macropain) 28 subunit, alpha (Psme1) mRNA: 1.9 fold
Hepatic gene expression; GenBank AA172909, liver, STZ vs control mice
  FC Carbon catabolite repression 4 homolog (S. cerevisiae) (Ccr4) mRNA: 1.8 fold
Hepatic gene expression; GenBank AA174883, liver, STZ vs control mice
  FC Erythroid differentiation regulator (Edr) mRNA: 1.8 fold
Hepatic gene expression; GenBank AA217659, liver, STZ vs control mice
  FC Nuclear receptor coactivator 4 (Ncoa4) mRNA: 1.8 fold
Hepatic gene expression; GenBank AA237297, liver, STZ vs control mice
  FC Argininosuccinate lyase (As1) mRNA: 2.0 fold
Hepatic gene expression; GenBank AA250708, liver, STZ vs control mice
  FC Expressed sequence A1266885: −2.5 fold
Hepatic gene expression; GenBank AA260798, liver, STZ vs control mice
  FC RIKEN cDNA 2310009NO5 gene (2310009N05Rik): 1.9 fold
Hepatic gene expression; GenBank AA267683, liver, STZ vs control mice
  FC Isopentenyl-diphosphate delta-isomerase mRNA: −2.0 fold
Hepatic gene expression; GenBank AA270796, liver, STZ vs control mice
  FC Activating transcription factor 5 (Atf5) mRNA: 2.1 fold
Hepatic gene expression; GenBank AA271265, liver, STZ vs control mice
  FC Cellular repressor of E1A-stimulated genes (Creg) mRNA: 2.0 fold
Hepatic gene expression; GenBank AA277153, liver, STZ vs control mice
  FC Splicing factor 3b, subunit 1, 155 kDa (Sf3b1) mRNA: 1.8 fold
Hepatic gene expression; GenBank AA277720, liver, STZ vs control mice
  FC NADH dehydrogenase (ubiquinone) 1 beta subcomplex 6 mRNA: 2.5 fold
Hepatic gene expression; GenBank AA285530, liver, STZ vs control mice
  FC vb90b12.rl Soares mouse 3NbMS cDNA clone IMAGE:764255: 1.9 fold
Hepatic gene expression; GenBank AA289858, liver, STZ vs control mice
  FC Ribonuclease, Rnase A family 4 (Rnase4) mRNA: −4.6 fold
Hepatic gene expression; GenBank AA388848, liver, STZ vs control mice
  FC Splicing factor, arginine/serine-rich 5 (SRp40, HRS) (Sfrs5) mRNA: 1.9 fold
Hepatic gene expression; GenBank AA390043, liver, STZ vs control mice
  FC Nuclear receptor coactivator 3 (Ncoa3) mRNA: 2.1 fold
Hepatic gene expression; GenBank AA472476, liver, STZ vs control mice
  FC Sirtuin 2 (Sirt2) mRNA: −2.0 fold
Hepatic gene expression; GenBank AA472795, liver, STZ vs control mice
  FC Retinal taurine transporter; solute carrier family 6, member 6 (Slc6a6) mRNA: 1.9 fold
Hepatic gene expression; GenBank AA518955, liver, STZ vs control mice
  FC RAB9, member RAS oncogene family (Rab9) mRNA: 1.9 fold
Hepatic gene expression; GenBank AA538556, liver, STZ vs control mice
  FC RIKEN cDNA 1810020N21 gene: 2.0 fold
Hepatic gene expression; GenBank AA592283, liver, STZ vs control mice
  FC Expressed sequence AA960392: 1.8 fold
Hepatic gene expression; GenBank AA600461, liver, STZ vs control mice
  FC Ring finger protein 4 (Rnf4) mRNA: 2.1 fold
Hepatic gene expression; GenBank AA608036, liver, STZ vs control mice
  FC Interferon alpha responsive gene, 15 kDa (Ifrg15-pending) mRNA: 1.9 fold
Hepatic gene expression; GenBank AA655730, liver, STZ vs control mice
  FC RIKEN cDNA 2700059D21 gene: 1.8 fold
Hepatic gene expression; GenBank AA666984, liver, STZ vs control mice
  FC vq87g01.r1 Knowles Solter mouse blastocyst B3 cDNA clone IMAGE: 1109328: 2.0 fold
Hepatic gene expression; GenBank C77421, liver, STZ vs control mice
  FC C77421 Mouse 3.5-dpc blastocyst cDNA clone J0030G04, similar to Mouse B10.VL30LTR gene: 2.5 fold
Hepatic gene expression; GenBank C79645, liver, STZ vs control mice
  FC Expressed sequence C79645: 1.8 fold
Hepatic gene expression; GenBank W3021 1, liver, STZ vs control mice
  FC mc25d02.rl Soares mouse cDNA clone IMAGE:349539: 2.1 fold
Hepatic gene expression; GenBank W08392, liver, STZ vs control mice
  FC ATP synthase, H+ transporting, mitochondrial F0 complex, subunit b, isoform 1 (Atp5f1) mRNA: 1.9 fold
Hepatic gene expression; GenBank W08453, liver, STZ vs control mice
  FC Destrin (Dsn) mRNA: 1.9 fold
Hepatic gene expression; GenBank W12681, liver, STZ vs control mice
  FC Hepatocyte growth factor activator HGFA (Hgfac) mRNA: −2.8 fold
Hepatic gene expression; GenBank W12899, liver, STZ vs control mice
  FC mb19d12.rl Soares mouse cDNA clone IMAGE:329879, similar to ACTIN, AORTIC SMOOTH MUSCLE: −2.9 fold
Hepatic gene expression; GenBank W12913, liver, STZ vs control mice
  FC Hepcidin antimicrobial peptide (Hamp) mRNA: −2.2 fold
Hepatic gene expression; GenBank W12941, liver, STZ vs control mice
  FC RIKEN cDNA 1110004C05 gene: 2.7 fold
Hepatic gene expression; GenBank W13835, liver, STZ vs control mice
  FC Golgi reassembly stacking protein 2 (Grs2-pending) mRNA: 3.5 fold
Hepatic gene expression; GenBank W13878, liver, STZ vs control mice
  FC DEAD/H (Asp-Glu-Ala-Asp/His) box polypeptide 1 mRNA: 1.9 fold
Hepatic gene expression; GenBank W17473, liver, STZ vs control mice
  FC Angiotensinogen (Agt) mRNA: −2.4 fold
Hepatic gene expression; GenBank W18904, liver, STZ vs control mice
  FC Tubulin cofactor a (Tbca) mRNA: 1.8 fold
Hepatic gene expression; GenBank W21013, liver, STZ vs control mice
  FC RIKEN cDNA 1110061M03 gene: −2.6 fold
Hepatic gene expression; GenBank W30137, liver, STZ vs control mice
  FC RIKEN cDNA 2410038A03 gene: 1.9 fold
Hepatic gene expression; GenBank W34349, liver, STZ vs control mice
  FC Coagulation factor XII (Hageman factor) (F12) mRNA: 2.0 fold
Hepatic gene expression; GenBank W53390, liver, STZ vs control mice
  FC Succinate dehydrogenase complex, subunit A, flavoprotein (Fp) (Sdha) mRNA: 2.0 fold
Hepatic gene expression; GenBank W64827, liver, STZ vs control mice
  FC RIKEN cDNA 1810030E05 gene: 2.4 fold
Hepatic gene expression; GenBank W85397, liver, STZ vs control mice
  FC mf48c06.rl Soares mouse embryo cDNA clone IMAGE:408298: 2.0 fold
Hepatic gene expression; GenBank W91222, liver, STZ vs control mice
  FC Cytochrome c oxidase, subunit VIIa 3 (Cox7a3) mRNA: 2.4 fold
Hepatic gene expression; GenBank W98255, liver, STZ vs control mice
  FC CD 81 antigen (Cd81) mRNA: −2.9 fold
Hepatic gene expression; liver of SID mice
  expression of Cytochrome c oxidase: increased
  expression of Glutathione S-transferase μ2: increased
  expression of Glutathione S-transferase π2: increased
  expression of NADH dehydrogenase 1: increased
  expression of RAB 1: increases
  expression of a proteasome subunit: Increased
  expression of alcohol dehydrogenase 1: decreases
  expression of arginase 1: increased
  expression of argininosuccinate synthetase 1: increased
  expression of complement component 4: decreases
  expression of corticosteroid binding globulin: Decreased
  expression of cytochrome P450, 1a2 gene: decreases
  expression of cytochrome P450, 2b13 gene: decreases
  expression of cytochrome P450, 2c29 gene: decreases
  expression of hepatic histidine ammonia lyase: Increased
  expression of hepatic mRNA for insulin-like growth factor binding protein 2: increases
  expression of inter-alpha trypsin inhibitor, heavy chain 3: increases
  expression of lactate dehydrogenase 1: increases
  expression of sorbitol dehydrogenase 1: decreases
  expression of the flavin-containing monooxygenase 5 gene: increases
  expression of the gene for apolipoprotein H: increases
  expression of thioether S-methyltransferase: decreases
  expression of two cytochrome P450, 3a subfamily members: increases
  mRNA for heat shock 70 kD protein 5: induced
  mRNA for hypoxia inducible factor 1: induced
  mRNA for prolyl 4-hydroxylase, beta polypeptide: induced
Hepatic gene expression; liver, control vs STZ-treated mice, more than 11,000 genes and ESTs assessed, 1.8-fold or greater
  number of known genes with a change in expression: 47
